In patent US20160287524A1, “PHARMACEUTICAL COMPOSITIONS COMPRISING AN ACTIVE AGENT” (GALENICUM HEALTH S.L., priority 2013, published 2016):

Assay: Dissolving the active agent in the capsule fill (glycerol monocaprylocaprate, BHT)
Assay type: physicochemical
Conditions: 20-23° C., stirred
Description: Another advantage of the process as herein disclosed is that it is highly reproducible and robust independently of the water content of the active agent. […] However, when the active agent has a water content higher than 0.05% measured by Karl Fischer titration, the components of the fill are completely dissolved at the same range of temperatures. Furthermore, the inventors have been able to establish an optimum range of working temperatures able to obtain a fill solution completely dissolved homogeneously with active agents with a water content higher than 0.05% w/w.
• Glycerol monocaprylocaprate was added to a stainless steel tank equipped with cooling jacket to keep it at a temperature of 20-23° C. It was stirred until completely dissolved. • Butylhydroxytoluene (BHT) was added to the tank and stirred until completely dissolved. • Finally dutasteride anhydrous was added to the tank. • The resulting solution was kept at a range of temperature of 20-23° C. […] Water content of the active agent and the range of temperatures were studied to avoid dissolution problems.

C[C@]12C=CC(=O)N[C@@H]1CC[C@@H]1[C@@H]2CC[C@]2(C)[C@@H](C(=O)Nc3cc(C(F)(F)F)ccc3C(F)(F)F)CC[C@@H]12 [dutasteride anhydrous]
dissolution of active agent in the fill solution: not possible to obtain a completely dissolved solution
